The record followed here is ChEMBL document CHEMBL2146458, “Tanshinones as selective and slow-binding inhibitors for SARS-CoV cysteine proteases” (Bioorg Med Chem, 2012).

Active and inactive are the calls of the source. The calls are words filed in the database; no cut-off is given here.

In experiment [1] the target is Replicase polyprotein 1a (Severe acute respiratory syndrome-related coronavirus) (UniProt P0C6U8). The settings on record: 200 uM.
Experiment [2] concerns the target T1, Replicase polyprotein 1a (Severe acute respiratory syndrome-related coronavirus, UniProt P0C6U8).
Experiment [3] addresses T1, Replicase polyprotein 1a. The source holds these as a separate data set.
Experiment [4] deals with T1, Replicase polyprotein 1a. This is another data set of the same source.
For experiment [5], the target named is T1, Replicase polyprotein 1a. The settings on record: read-out: Ki(app).
Experiment [6] concerns the target T1, Replicase polyprotein 1a. This is another data set of the same source.
Experiment [7] concerns the target Protease (Human immunodeficiency virus 1, UniProt Q9YQ12). Put plainly: Inhibition of Human immunodeficiency virus 1 protease preincubated for 10 mins by FRET assay.
The target of experiment [8] is Replicase polyprotein 1a (Severe acute respiratory syndrome-related coronavirus) (UniProt P0C6U8).
Experiment [9] has the same target. This is another data set of the same source.
Experiment [10] can be described thus: Inhibition of chymotrypsin using N-benzoyl-L-tyrosine ethyl ester as substrate assessed as benzoyl-tyrosine production measured every 10 seconds for 6 mins.
Experiment [11] concerns the target Replicase polyprotein 1a (Severe acute respiratory syndrome-related coronavirus) (UniProt P0C6U8). As to conditions: TDE = time-dependent effect.
The target in experiment [12] is T2, Papain (Carica papaya, UniProt P00784).
T2 sequence (P00784 whole entry): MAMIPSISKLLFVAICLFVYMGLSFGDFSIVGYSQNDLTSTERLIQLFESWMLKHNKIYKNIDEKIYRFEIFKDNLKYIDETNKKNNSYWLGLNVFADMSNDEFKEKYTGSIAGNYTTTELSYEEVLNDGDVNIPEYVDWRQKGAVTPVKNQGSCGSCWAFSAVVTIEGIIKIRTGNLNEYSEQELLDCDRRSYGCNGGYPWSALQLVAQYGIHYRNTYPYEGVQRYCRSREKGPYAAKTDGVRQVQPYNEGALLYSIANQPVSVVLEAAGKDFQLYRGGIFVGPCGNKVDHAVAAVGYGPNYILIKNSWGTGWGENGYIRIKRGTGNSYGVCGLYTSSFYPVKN
Put plainly: Inhibition of papaya papain using N-alpha-benzoyl-L-arginine-pnitroanilide as substrate after 5 mins.

In experiment [13] the target is Replicase polyprotein 1a (Severe acute respiratory syndrome-related coronavirus) (UniProt P0C6U8). This is another data set of the same source.
Experiment [14] shares this target. The source holds these as a separate data set.
In experiment [15] the target is T3, Papain (Carica papaya) (UniProt P00784).
T3 sequence (whole entry): T2 sequence (P00784 whole entry)
In words: Inhibition of papaya papain using N-alpha-benzoyl-L-arginine-pnitroanilide as substrate at 200 uM after 5 mins.

The target of experiment [16] is Replicase polyprotein 1a (Severe acute respiratory syndrome-related coronavirus) (UniProt P0C6U8). The source holds these as a separate data set.
Experiment [17] is described as follows: Inhibition of chymotrypsin using N-benzoyl-L-tyrosine ethyl ester as substrate assessed as benzoyl-tyrosine production at 200 uM measured every 10 seconds for 6 mins.
Experiment [18] deals with Replicase polyprotein 1a (Severe acute respiratory syndrome-related coronavirus) (UniProt P0C6U8). As to conditions: 1 to 100 uM.
Experiment [19] shares this target. The settings on record: 200 uM. The source holds these as a separate data set.
Experiment [20] has the same target. This is another data set of the same source.
In experiment [21] the target is Protease (Human immunodeficiency virus 1) (UniProt Q9YQ12). Put plainly: Inhibition of Human immunodeficiency virus 1 protease at 200 uM preincubated for 10 mins by FRET assay.
Chain of Protease (Human immunodeficiency virus 1) (Q9YQ12 as listed by the source): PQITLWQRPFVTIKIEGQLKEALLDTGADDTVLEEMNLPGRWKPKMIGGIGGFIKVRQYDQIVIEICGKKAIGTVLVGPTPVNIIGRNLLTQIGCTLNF

Chain of Protease (Q9YQ12 whole entry): as the sequence (Q9YQ12 as listed by the source) above

A word on the inhibition: it is the relative decrease from the control value, in per cent. Take `O=C(/C=C/c1cc(O)cc2c1[C@H](C(O)O[C@H](Cc1ccc(O)c(O)c1)C(=O)O)[C@@H](c1ccc(O)c(O)c1)O2)O[C@H](Cc1ccc(O)c(O)c1)C(=O)O` (some centres not stated): the inhibition in experiment [1] came out at 30%.
Usually IC50 stands for the concentration at which inhibition is half-maximal. With `C[C@H]1COC2=C1C(=O)C(=O)c1c2ccc2c1CCCC2(C)C` [CRYPTOTANSHINONE], the IC50 stood at 0.8 µM in [2]; 227 µM in [3]; 87.6 µM in [4]; 10.1 µM in [6]; 69.6 µM in experiment [7]; 120 µM in experiment [10]. For the same molecule, it took 89.8 µM to reach half-maximal inhibition in [12] (IC50). The Ki in [5] was 9 µM. Further, the inhibition result in [8] and in experiment [13] was “Active” throughout. The inhibition result in experiment [9] is “Dose-dependent effect”; in [11], “tde”.
As to `Cc1cccc2c3c(ccc12)C1=C(C(=O)C3=O)[C@@H](C)CO1` [DIHYDROTANSHINONE I], the IC50 in experiment [2] came out at 4.9 µM; in experiment [3], 14.4 µM; in experiment [4], 1.2 µM; in experiment [6], 10.7 µM; in experiment [7], 50.6 µM. The inhibition entry in experiment [14] was “Dose-dependent effect”; in experiment [11], “tde”. For the same molecule, the Ki in experiment [5] amounted to 11.2 µM. Moreover, the inhibition result in experiment [8], in experiment [16] and in experiment [13] was “Active” each time. The inhibition result in [15], in experiment [17] and in experiment [18] was “inactive” throughout.
As for `COC(=O)[C@@]1(C)CCCc2c1ccc1c2C(=O)C(=O)c2c(C)coc2-1` [METHYL TANSHINONATE], the inhibition result in experiment [19], in [15] and in experiment [18] was “inactive” throughout. The IC50 in experiment [2] was 9.2 µM; in experiment [3] it was 21.1 µM; in experiment [6] it was 10.6 µM; in experiment [7], 103 µM; in experiment [10], 124 µM. Further, the inhibition entry in experiment [14] was “Dose-dependent effect”; in [11], “tde”. In addition, the Ki in experiment [5] turned out to be 9.7 µM. Besides, the inhibition entry in experiment [8], in [16] and in experiment [13] was “Active” in each case.
Regarding `CC(C)C1=Cc2ccc3c(c2C(=O)C1=O)CCCC3(C)C` [MILTIRONE], the IC50 in experiment [2] amounted to 30 µM; in experiment [3], 21.1 µM; in experiment [4], 60.2 µM; in experiment [6], 78.9 µM; in experiment [7], 148 µM; in experiment [10] it was 139 µM. This molecule gave an IC50 in [12] of 88 µM. Also, the inhibition entry in experiment [14] is “Dose-dependent effect”; in [11], “tde”. For the same molecule, the inhibition entry in experiment [20], in experiment [8] and in experiment [16] was “Active” each time. Further, the Ki in experiment [5] is 21.5 µM. The inhibition result in experiment [18] is “inactive”.
With `Cc1coc2c1C(=O)C(=O)c1c-2ccc2c1CCCC2(C)C` [TANSHINONE IIA], the inhibition result in experiment [19] and in experiment [18] was “inactive” in each case. In addition, the IC50 in [2] was found to be 1.6 µM; in [3], 89.1 µM; in experiment [6], 17.1 µM; in experiment [7] it was 59.2 µM; in experiment [10], 68.3 µM; in experiment [12], 122 µM. The figures for the inhibition result in [14] and in experiment [11] were “Dose-dependent effect” and “tde”, respectively. The Ki in experiment [5] worked out at 11.2 µM. In addition, the inhibition result in [8], in experiment [16] and in experiment [13] was “Active” throughout.
`Cc1coc2c1C(=O)C(=O)c1c-2ccc2c1CCCC2(C)CO` (configuration not stated) [TANSHINONE IIB]: the half-inhibitory concentration (IC50) in experiment [2] came out at 10.7 µM; in [3], 24.8 µM; in experiment [4] it was 52 µM; in experiment [6], 18 µM. Moreover, the inhibition entry was “Dose-dependent effect” in experiment [14] and “tde” in experiment [11]. In addition, the Ki in [5] amounted to 21.6 µM. Also, the inhibition result in experiment [21], in [15], in experiment [17] and in [18] was “inactive” in each case. Also, the inhibition entry in experiment [8], in [16] and in experiment [13] was “Active” in each case.
As to `Cc1coc2c1C(=O)C(=O)c1c-2ccc2c(C)cccc12` [TANSHINONE I], the IC50 stood at 8.8 µM in experiment [2]; 38.7 µM in [3]; 0.7 µM in [4]; 11.5 µM in experiment [6]; 45.9 µM in experiment [7]; 103 µM in experiment [10]. Further, the inhibition entry in experiment [14] is “Dose-dependent effect”; in experiment [11] it was “tde”. Also, the Ki in experiment [5] was found to be 13.7 µM. The inhibition result in experiment [8], in [16] and in experiment [13] was “Active” in each case. In addition, the inhibition result in experiment [15] and in [18] was “inactive” each time.
